Where two headings read alike, the source gives them in different places.

The source of these data is patent US20030181376A1, “Control of crop pests & animal parasites through direct neuronal uptake” (priority 2000, published 2003).

What all share (assay type): in vivo
One assay has as its system Heterodera glycines. Put plainly: Behavioural bioassay: orientation of H. glycines juveniles to an attractant disc (root exudate) after pre-incubation. As to conditions: for EC50: read-out: concentration giving 50% reduction in attraction of H. glycines to an attractant. As to the method: This assay was modified from that used by Grundler et al (Parasitology 103, 149-155; 1991). Soybean plants were grown in pots containing perlite in a tropical glasshouse until the root system was well established. Plants were carefully washed free of the perlite in running water and then several plants were placed in 200 cm3 dH2O in a conical flask which was covered in foil to keep light off the roots and then incubated in a Sanyo plant growth cabinet (16 hr light 24° C., 8 hr dark 20° C.) for 48hrs. The root exudate was collected and filter sterilised through 0.45 μm syringe filter.
Agarose discs covered in either dH2O or root exudate were made as follows. Agarose (3 ml, 1.5% solution made in dH2O) was poured into 6 cm petri dishes and allowed to surface dry. One ml of root exudate or dH2O was pipetted onto the plates, the surface covered by swirling and then left to completely evaporate. A cork borer was used to cut out 6 mm discs from the plate.
The oxime carbamate nematicide Aldicarb was obtained by putting 1 g Temik (10G, Rhône-Poulenc), in 10 ml chloroform to dissociate the oxime carbamate from its inert carrier. After 1 hour particulate material was removed by centrifugation. 100, 10 or 1 μl aliquots of the chloroform/aldicarb solution were pipetted into 1.5 ml microtubes and left to evaporate in a fume hood. This leaves 1, 0.1 and 0.01 mg aldicarb respectively in each tube. Addition of 1 ml dH2O to these tubes provides solutions of […] respectively.
Aliquots of juveniles of H. glycines were incubated for 16 hours in a range of concentrations of aldicarb, or in peptides generated that recognise the same acetylcholinesterase (AChE) target as aldicarb (see example IV). The effect of different concentrations of aldicarb or peptides on chemoreception was measured. Control worms were incubated in either water or PBS for the peptide experiments.
Treated nematode juveniles (approximately 300) in small volumes (typically 20 μl) dH2O were placed in the centre of 3.5 cm diameter petri dishes containing 1.5 ml 1.5% agarose. After evaporation of the water the worms were left for 1 hour to randomly distribute over the plate. A root exudate and a water agarose test disc were placed onto the plate equally spaced (5 mm) from the centre. The plates were left for 1 hour at room temperature in the dark. The experiments were carried out in replicates of 8-10 per concentration of aldicarb or peptide assayed. Controls in which nematodes were not treated with any chemical or peptide mimetic were also used for each experimental day to obtain a 100% rate of attraction. This allowed measurements of the extent of chemoattraction mediated by a test compound on any day.
The number of worms under each disc was counted using a dissecting microscope. In control experiments typically 2-4 times as many worms were counted under the root exudate disc as were under the water control disc. The numbers of responders minus the number under the control disc was used to calculate a response. With ˜300 animals on the plate the difference was around 40-80. The difference between the numbers under the attractant and the control discs was used to define the maximum response on that day of experiments.
Various concentrations of these compounds were tested with a modified bioassay. The data sets were analysed using probit analysis within a standard statistical package (SPSS) installed on a personal computer. […] Even higher concentrations of aldicarb and both AChE binding peptides were needed to inhibit movement than required to disrupt chemoreception.
Freshly hatched H. glycines were incubated for 16 hours at room temperature in various concentrations of Levamisole. They were tested using the bioassay in example 3.

A further assay relates to Globodera pallida. Put plainly: Behavioural bioassay: orientation of G. pallida to an attractant disc (50 mM ZnCl2) after pre-incubation. Conditions: 16 h pre-treatment at 1.242×10^−8 M.
The test system of assay [1] is Heterodera glycines and Globodera pallida. Put plainly: Behavioural bioassay, pooled data of H. glycines and G. pallida after pre-incubation in levamisole mimetic peptide. Conditions: 16 h pre-treatment at 1×10^−6 M; data of two species pooled; values>1 indicate a chemoreceptive response.
Experimental: The number of worms under each disc was counted using a dissecting microscope. […] The numbers of responders minus the number under the control disc was used to calculate a response. […] The difference between the numbers under the attractant and the control discs was used to define the maximum response on that day of experiments.
50 mM CaCl2 was used as an attractant with the agarose discs. Those assays were carried out at 27° C. […] The peptide was also tested against the potato cyst nematode Globodera pallida using the same methods as described for H. glycines. G. pallida was incubated for 16 h in a solution containing the constrained peptide at 1.242×10^−8 M at room temperature. […]
Setting [2] is: incubation for 16 hours, probit analysis.

Turning to `c1ccc([C@H]2CN3CCSC3=N2)cc1` [Levamisole], the signs of paralysis entry in the assay on Heterodera glycines (16 hours at room temperature in various concentrations) is given as “did not show any signs of paralysis”. Besides, the inhibition of chemoreception entry in the assay with Heterodera glycines (16 hours at room temperature in various low concentrations, FIG. 5) is “inhibit chemoreception in a dose-dependent manner”.
For the molecule `CNC(=O)O/N=C/C(C)(C)SC` [aldicarb, Aldicarb], the “disruption of chemosensory attraction relative to paralysis” value with Heterodera glycines (H. glycines, 16 hours incubation) is “disrupt chemosensory attraction completely at concentrations lower than those which cause paralysis”. In the assay on Heterodera glycines (Heterodera glycines, 16 h), the EC50 amounted to 0.0011 ± 0.00306 nM.
As to CHNSHIRWC [control peptide], the loss of chemoreception entry with Heterodera glycines (incubation at 2 μM) is “no loss of chemoreception”.
On to CSINWRHHC [constrained 7 mer peptide], for which the EC50 with Heterodera glycines (setting [2]) came to 2.16 nM. In the assay on Globodera pallida (room temperature, bioassay at 20° C., 50 mM ZnCl2, values>1 indicate a chemoreceptive response), the “mean value ratio of nematodes under the disc with the attractant rather than without it” value is recorded as 0.77±0.08. Further, the “ratio of nematodes under attractant disc versus control disc, 3 hours after the start of the bioassay” value in the assay with Globodera pallida (3 hours after start of the bioassay) was determined as 0.78±0.06.
As for CTTMHPRLC, the “mean value ratio of nematodes under the disc with the attractant rather than without it” value in assay [1] stood at 1.03±0.11. In the assay on Heterodera glycines (H. glycines, 16 h pre-treatment at 1×10^−6 M, 3 hours after start of the bioassay), the “ratio of nematodes under attractant disc versus control disc, 3 hours after the start of the bioassay” value came out at 1.24±0.11.
SVSVGMKPSPRP [linear 12 mer peptide]: the EC50 in the assay with Heterodera glycines (setting [2]) came out at 3680 nM.
